# Test results as given in US11613533B2, “Compounds useful for inhibiting RET kinase” (Eli Lilly and Company, priority 2020, dated 2023).
# Numbering of substitutions follows the chain as printed.
# Tests used:
# [1] = molecular target: T1, KIF5B-RET mutant form V804M in HEK293 cells (Homo sapiens, UniProt P07949, V804M); assay: RET cell assay (In-Cell Western, phospho-RET Y1062), V804M; type: cell-based; conditions: HEK293, doxycycline-induced KIF5B-RET V804M, 1 hr compound treatment; read-out: EC50, inhibition of intracellular autophosphorylation of RET at tyrosine 1062, V804M cells
# T1 construct: expressed in transfected cells; host or cells: HEK293; the other entry of the earlier key: KIF5B (P33176, Kinesin-1 heavy chain)
# T1 sequence (P07949 713-1063 V804M limits assumed): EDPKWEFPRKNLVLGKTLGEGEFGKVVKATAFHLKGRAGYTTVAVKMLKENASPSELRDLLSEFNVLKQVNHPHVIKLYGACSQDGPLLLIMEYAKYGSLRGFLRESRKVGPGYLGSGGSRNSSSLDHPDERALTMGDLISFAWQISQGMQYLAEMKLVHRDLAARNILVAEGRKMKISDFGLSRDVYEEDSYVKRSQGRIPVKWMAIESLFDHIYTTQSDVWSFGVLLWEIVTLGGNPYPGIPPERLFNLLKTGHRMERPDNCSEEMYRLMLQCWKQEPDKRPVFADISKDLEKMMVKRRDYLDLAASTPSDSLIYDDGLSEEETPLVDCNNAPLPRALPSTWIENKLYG
# Method: (§1) Compounds of formulas (I), (II), and (III) are screened for their ability to inhibit the intracellular autophosphorylation of RET at tyrosine 1062 as detected by In-Cell Western. HEK293 cells containing a doxycycline-inducible plasmid for inducible expression of KIF5B-RET WT and RET mutant forms V804M and G810S are seeded at 25,000 cells/well into black poly-D-lysine pre-coated 384-well plates (Corning, Catalog No. 356697). Expression of KIF5B-RET is induced with doxycycline at 1 μg/mL and cells are incubated at 37° C. overnight. Compounds are prepared in a threefold serial dilution in DMSO before further diluting 1:100 in media prior to the addition to the cells (0.1% final DMSO concentration). Compound treatment is performed for 1 hr at 37° C. followed by fixation of cells with 4% formaldehyde for 20 min at RT and cell permeabilisation with ice-cold MeOH for 10 min at RT. Cells are incubated with Intercept® blocking buffer (Li—COR, Catalogue No. 927-70010) for 1 hr at RT. Incubation with primary antibodies against human phospho-RET (Y1062) (R&D, Catalogue No. AF5009, 1/250 dilution) and human glyceraldehyde-3-phosphate dehydrogenase (clone 6C5, Merck, Catalog No. MAB374, 1/1000 dilution) are performed overnight at 4° C. Incubation with secondary antibodies IRDye® 800CW goat anti-rabbit IgG (Li—COR, Catalogue No. 926-32211, 1/1000 dilution) and IRDye® 680CW goat anti-mouse IgG (Li—COR, Catalogue No. 926-68070, 1/1000 dilution) are performed for 1 hr at RT. All antibody dilutions are done in Intercept® blocking buffer containing 0.05% Tween20. After washing cells with PBS-T (Cell Signaling technology, Catalogue No. 9809), the images are acquired on a Li—COR Odyssey LCx at 700 and 800 nm. Percent of DMSO control is calculated with 100% signal referring to control conditions containing no compound (0.4% DMSO only) and 0% signal represented by conditions containing control compound. The % of DMSO control values are fit to a 4 parameter logistic curve, and the determined EC50 value is defined as the estimated concentration of inhibitor at the inflexion point of the fitted curve.
# [2] = molecular target: T2, KIF5B-RET WT in HEK293 cells (Homo sapiens, UniProt P07949); assay: RET cell assay (In-Cell Western, phospho-RET Y1062), wildtype; type: cell-based; conditions: HEK293, doxycycline-induced KIF5B-RET WT, 1 hr compound treatment; read-out: EC50, inhibition of intracellular autophosphorylation of RET at tyrosine 1062, wildtype cells
# T2 construct: expressed in transfected cells; host or cells: HEK293; the other entry of the earlier key: KIF5B (P33176, Kinesin-1 heavy chain)
# T2 sequence (P07949 713-1063 limits assumed): T1 sequence (P07949 713-1063 V804M limits assumed) with M92V
# Method: as §1
smiles,measurement,setting,value
"CC(C(=O)Nc1cc(C(C)(C)CC(F)(F)F)on1)c1ccc(-c2nn(C(C)C)c(N)c2C(N)=O)nc1 (single isomer, unassigned; isomer 2) [Example 68, 5-Amino-1-isopropyl-3-(5-(1-oxo-1-((5-(4,4,4-trifluoro-2-methylbutan-2-yl)isoxazol-3-yl)amino)propan-2-yl)pyridin-2-yl)-1H-pyrazole-4-carboxamide, Isomer 2]",EC50,[1],< 100 nM
same,EC50,[2],< 100 nM
"CC(C(=O)Nc1cc(C2CC(C)(C)C2)no1)c1ccc(-c2nn(C(C)C)c(N)c2C(N)=O)cc1 (single isomer, unassigned; isomer 1) [Example 98, 5-Amino-3-[4-[2-[[3-(3,3-dimethylcyclobutyl)isoxazol-5-yl]amino]-1-methyl-2-oxo-ethyl]phenyl]-1-isopropyl-pyrazole-4-carboxamide, Isomer 1]",EC50,[1],< 100 nM
same,EC50,[2],< 100 nM
"CCC(C)(C)c1cc(NC(=O)C(C)c2ccc(-c3nn(C(C)C)c(N)c3C(N)=O)nc2)no1 (single isomer, unassigned; isomer 2) [Example 66, 5-Amino-1-isopropyl-3-[5-(1-[[5-(2-methylbutan-2-yl)-1,2-oxazol-3-yl]carbamoyl]ethyl)pyridin-2-yl]pyrazole-4-carboxamide, Isomer 2]",EC50,[1],< 100 nM
same,EC50,[2],< 100 nM
"CC(C(=O)Nc1cc(C(C)(C)C(F)(F)F)on1)c1ccc(-c2nn(C(C)C)c(N)c2C(N)=O)cc1 (single isomer, unassigned; isomer 1) [Example 81, 5-Amino-1-isopropyl-3-[4-(1-[[5-(1,1,1-trifluoro-2-methylpropan-2-yl)-1,2-oxazol-3-yl]carbamoyl]ethyl)phenyl]pyrazole-4-carboxamide, Isomer 1]",EC50,[1],< 100 nM
same,EC50,[2],< 100 nM
"CC(C(=O)Nc1cc(C(C)(C)C(F)(F)F)on1)c1ccc(-c2nn(C(C)C)c(N)c2C(N)=O)nc1 (single isomer, unassigned; isomer 2) [Example 64, 5-Amino-1-isopropyl-3-[5-(1-[[5-(1,1,1-trifluoro-yl)-1,2-oxazol-3-2-methylpropan-2-yl]carbamoyl]ethyl)pyridin-2-yl]pyrazole-4-carboxamide, Isomer 2]",EC50,[1],< 100 nM
same,EC50,[2],< 100 nM
"CC(C(=O)Nc1cc(C(C)(C)C(C)(F)F)on1)c1ccc(-c2nn(C(C)C)c(N)c2C(N)=O)nc1 (single isomer, unassigned; isomer 2) [Example 70, 5-Amino-3-[5-(1-[[5-(3,3-difluoro-2-methylbutan-2-yl)-1,2-oxazol-3-yl]carbamoyl]ethyl)pyridin-2-yl]-1-isopropylpyrazole-4-carboxamide, Isomer 2]",EC50,[1],< 100 nM
same,EC50,[2],< 100 nM
"CC(C(=O)Nc1cc(CC(C)(C)C)no1)c1ccc(-c2nn(C(C)C)c(N)c2C(N)=O)cc1 (single isomer, unassigned; isomer 1) [Example 1, 5-Amino-3-[4-(1-[[3-(2,2-dimethylpropyl)-1,2-oxazol-5-yl]carbamoyl]ethyl)phenyl]-1-isopropylpyrazole-4-carboxamide, Isomer 1]",EC50,[1],< 100 nM
same,EC50,[2],< 100 nM
"CC(C(=O)Nc1cc(C(C)(C)C)sn1)c1ccc(-c2nn(C(C)C)c(N)c2C(N)=O)cc1 (single isomer, unassigned; isomer 2) [Example 80, 5-Amino-3-(4-[1-[(5-tert-butyl-1,2-thiazol-3-yl)carbamoyl]ethyl]phenyl)-1-isopropylpyrazole-4-carboxamide, isomer 2]",EC50,[1],< 100 nM
same,EC50,[2],< 100 nM
"CC(C(=O)Nc1cc(C2(C)CC2)no1)c1ccc(-c2nn(C(C)C)c(N)c2C(N)=O)cc1 (single isomer, unassigned; isomer 1) [Example 35, 5-Amino-1-isopropyl-3-[4-(1-[[3-(1-methylcyclopropyl)-1,2-oxazol-5-yl]carbamoyl]ethyl)phenyl]pyrazole-4-carboxamide, Isomer 1]",EC50,[1],< 100 nM
same,EC50,[2],< 100 nM
